Source: patent publication US20020028188A1, “Method of preparing particularly skin-compatible cosmetic or dermatological cleansing preparations” (priority 1999, published 2002)

System: surface of the skin
Assay: adsorption of lauryl ether sulfate on the skin (simulated washing operation, forearm, desorption, ion-pair chromatography)
Assay type: in vivo, human
Conditions: significance: Yes
Procedure: The method which we have developed for determining the adsorption of lauryl ether sulfate on the skin simulates a washing operation as occurs, for example, during daily showering: Firstly, the inner sides of the forearms are divided into a number of test areas using insulating tape. The area to be treated is then wetted with approximately 50 ml of mains water (T=38±1° C.). The lauryl ether sulfate is then applied. Throughout the application period of 45 s, the test subject distributes the lauryl ether sulfate over the area using 2 fingers in uniform circular movements. At the end of the application period, the test area is rinsed with approximately 950 ml of mains water (T=38±1° C.) and carefully patted dry using a clean cellulose cloth. For the desorption, a plastic ring with an internal diameter of 25 mm is pressed firmly onto the inner side of the test subject's forearm. 1000 μl of a 1% Triton X-100 solution are then introduced into the ring. The tip of a round Teflon-coated spatula is then used to scrape the skin uniformly for 1 min. This leads to suspension of corneocytes. To work up the samples for analysis, the samples are centrifuged and 800 μl of the supernatant are drawn off. The supernatant is analyzed with regard to its lauryl ether sulfate content using ion-pair chromatography. The effectiveness of the desorption method described is 79%, i.e. 79% of the amount of lauryl ether sulfate actually present on the skin are included.

[1] = cosurfactant concentration 3% added to a lauryl ether sulfate solution

Compound	Effect on the adsorbed amount of lauryl ether sulfate (Reduction by) [1]	other results
CCCCCCCCCCCC(=O)O [Lauric acid]		Effect on the adsorbed amount of lauryl ether sulfate (Reduction by) (cosurfactant concentration 1%, pH9, added to a lauryl ether sulfate solution): Reduction by 15%
CCCCCCCCCCO[C@@H]1O[C@H](CO)[C@@H](O)[C@H](O)[C@H]1O [Decyl glucoside]		Effect on the adsorbed amount of lauryl ether sulfate (Reduction by) (cosurfactant concentration 5% added to a lauryl ether sulfate solution): Reduction by 29%
Sodium cocoamphoacetate	Reduction by 27%	
Cocamidopropylbetaine	Reduction by 31%	
Disodium laureth sulfosuccinate	Reduction by 28%	
